Measured values: patent US20230219904A1 (SYNGENTA CROP PROTECTION AG, priority 2020, published 2023)

Columns and labels:
Assay type in all cases: in vivo
[1] = test system: Setaria faberi (SETFA); assay: Pre-emergence herbicidal glasshouse test (Table B1); conditions: applied at 500 g/h, evaluated after 13 days
Method in brief: (§1)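 In this pot assay, seedlings or sown soil receive a spray of formulated active ingredient (acetone/water 50:50, 0.5% Tween 20) at 500 g/h unless indicated. Conditions: 24/16° C day/night, 14 hours light, 65% humidity, watering twice daily. Injury is scored after 13 days, 1 (0-19%) to 5 (80-100%).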

[2] = test system: Amaranthus retoflexus (AMARE); assay: as above; conditions: applied at 500 g/h, evaluated after 13 days
Method in brief: as §1

[3] = test system: Ipomoea hederacea (IPOHE); assay: as above; conditions: applied, evaluated after 13 days
Method in brief: as §1

[4] = test system: Echinochloa crus-galh (ECHCG); assay: as above; conditions: applied at 500 g/h, evaluated after 13 days
Method in brief: as §1

[5] = test system: Abutilon theophrasti (ABUTH); assay: as above; conditions: applied at 500 g/h, evaluated after 13 days
Method in brief: as §1

[6] = test system: Setaria faberi (SETFA); assay: Post-emergence herbicidal glasshouse test (Table B1); conditions: applied at 500 g/h, evaluated after 13 days
Method in brief: as §1

[7] = test system: Amaranthus retoflexus (AMARE); assay: as above; conditions: applied at 500 g/h, evaluated after 13 days
Method in brief: as §1

[8] = test system: Ipomoea hederacea (IPOHE); assay: as above; conditions: applied at 500 g/h, evaluated after 13 days
Method in brief: as §1

[9] = test system: Echinochloa crus-galh (ECHCG); assay: as above; conditions: applied at 500 g/h, evaluated after 13 days
Method in brief: as §1

[10] = test system: Abutilon theophrasti (ABUTH); assay: as above; conditions: applied at 500 g/h, evaluated after 13 days
Method in brief: as §1

| SMILES | PRE Application SETFA, percentage damage on five-point scale [1] | PRE Application AMARE, percentage damage on five-point scale [2] | PRE Application IPOHE, percentage damage on five-point scale [3] | PRE Application ECHCG, percentage damage on five-point scale [4] | PRE Application ABUTH, percentage damage on five-point scale [5] | POST Application SETFA, percentage damage on five-point scale [6] | POST Application AMARE, percentage damage on five-point scale [7] | POST Application IPOHE, percentage damage on five-point scale [8] | POST Application ECHCG, percentage damage on five-point scale [9] | POST Application ABUTH, percentage damage on five-point scale [10] |
| --- | --- | --- | --- | --- | --- | --- | --- | --- | --- | --- |
| Cc1nnc(NC(=O)c2ccc(OC(F)(F)F)c(N(C)C)c2Cl)o1 [Compound 2.001, 2-chloro-3-(dimethylamino)-N-(5-methyl-1,3,4-oxadiazol-2-yl)-4-(trifluoromethoxy)benzamide] | 5 (5=80-100%) | 5 (5=80-100%) | 3 (3=40-59%) | 5 (5=80-100%) | 4 (4=60-79%) | 5 (5=80-100%) | 5 (5=80-100%) | 5 (5=80-100%) | 5 (5=80-100%) | 4 (4=60-79%) |
| CC(=O)Nc1c(OC(F)(F)F)ccc(C(=O)Nc2nnc(C)o2)c1Cl [Compound 2.002] | 1 (1=0-19%) | 1 (1=0-19%) | 1 (1=0-19%) | 1 (1=0-19%) | 3 (3=40-59%) | 5 (5=80-100%) | 5 (5=80-100%) | 5 (5=80-100%) | 5 (5=80-100%) | 5 (5=80-100%) |
| CC(=O)N(C)c1c(OC(F)(F)F)ccc(C(=O)Nc2nnc(C)o2)c1Cl [Compound 2.003] | 5 (5=80-100%) | 5 (5=80-100%) | 4 (4=60-79%) | 5 (5=80-100%) | 5 (5=80-100%) | 5 (5=80-100%) | 5 (5=80-100%) | 5 (5=80-100%) | 5 (5=80-100%) | 5 (5=80-100%) |
| Cc1nnc(NC(=O)c2ccc(OC(F)(F)F)c(N3CCCCC3=O)c2Cl)o1 [Compound 2.004] | 5 (5=80-100%) | 5 (5=80-100%) | 1 (1=0-19%) | 5 (5=80-100%) | 4 (4=60-79%) | 5 (5=80-100%) | 5 (5=80-100%) | 5 (5=80-100%) | 5 (5=80-100%) | 5 (5=80-100%) |
